These results are taken from PubChem BioAssay (NCI).

Some test systems named below: EKVX NSCLC; HCT-15 colon; KM12 colon; OVCAR-5 ovarian; OVCAR-8 ovarian; SF-539 CNS; SNB-19 CNS; SNB-75 CNS; TK-10 renal; UO-31 renal.
What all share (assay): growth of human tumour cells (NCI), 48 h

Where “and” joins values, the source holds several entries; their conditions need not be identical. Equal values may be shown once.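 In this assay, cells in 96-well plates receive the compound at five concentrations for 48 hours. Endpoints are linearly interpolated between the surrounding concentrations. Abbreviation: GI50, concentration required for 50% inhibition of growth. TGI is the concentration that stops growth completely.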

As for `CCOc1cc2c(cc1O)/C(=N\O)C[C@@H]1[C@@H]2CC[C@]2(C)[C@@H](O)CC[C@@H]12`, the GI50 with EKVX NSCLC was 0.0582 µM; in the assay with KM12 colon it was 0.0797 µM; in the assay on SF-539 CNS it was 0.0269 µM; in the assay on SNB-19 CNS it was 0.00629 µM; in the assay with SNB-75 CNS, 0.00232 µM; with UO-31 renal, 0.984 µM. The TGI in the assay with EKVX NSCLC is > 100 µM; in the assay on HCT-15 colon, > 36.8 µM; in the assay with OVCAR-5 ovarian it was > 100 µM; in the assay with OVCAR-8 ovarian, > 100 µM; with SNB-75 CNS, 0.0166 µM; in the assay with TK-10 renal, > 100 µM. The compound further returned a TGI with UO-31 renal of 46.1 µM.

Take `C/C1=C/C2=CC(C)C[C@@H]2C(=O)[C@]2(C)C(=O)CC(C)(C)[C@H]2CC1=O` (stereo not given in full): the TGI in the assay with EKVX NSCLC, in the assay on HCT-15 colon, in the assay on KM12 colon, in the assay with OVCAR-5 ovarian, with OVCAR-8 ovarian and with SF-539 CNS was > 50 µM throughout. For the same compound, the TGI with SNB-19 CNS, in the assay with SNB-75 CNS, in the assay on TK-10 renal and with UO-31 renal was > 50 µM in each case.

As to `N#C/C(=C\c1ccc(O)c(O)c1)C(=O)NC1CCC(CC2CCC(NC(=O)/C(C#N)=C/c3ccc(O)c(O)c3)CC2)CC1` (stereo not given), the TGI in the assay on EKVX NSCLC is 45.1 µM; with HCT-15 colon, 32.7 µM; in the assay with KM12 colon it was 2.92 µM; with OVCAR-5 ovarian it was 4.09 µM; in the assay with OVCAR-8 ovarian, 10.4 µM; in the assay with SF-539 CNS it was 2.67 µM. In addition, the TGI in the assay with SNB-19 CNS is > 29.9 µM; in the assay on SNB-75 CNS it was 1.69 µM; with TK-10 renal, > 54.7 µM; with UO-31 renal, 4.97 µM.

Turning to `O=C(O)CCC(=O)c1ccc2ccc3cccc4ccc1c2c34`, the TGI in the assay with EKVX NSCLC is > 100 µM; with HCT-15 colon, > 100 µM; with KM12 colon, > 100 µM; in the assay with OVCAR-5 ovarian, > 100 µM; in the assay on OVCAR-8 ovarian, > 100 µM; in the assay with SF-539 CNS, 68 µM. Moreover, the TGI with SNB-19 CNS, with SNB-75 CNS, in the assay on TK-10 renal and in the assay on UO-31 renal was > 100 µM throughout.

Turning to `Cn1nnnc1N/N=C/c1ccccc1`, the TGI in the assay on EKVX NSCLC, in the assay on HCT-15 colon, in the assay with KM12 colon, in the assay on OVCAR-5 ovarian, in the assay with OVCAR-8 ovarian and in the assay on SF-539 CNS was > 10 µM throughout. In addition, the TGI in the assay on SNB-19 CNS, in the assay with SNB-75 CNS, with TK-10 renal and in the assay on UO-31 renal was > 10 µM throughout.

For the compound `O=C(CF)N(O)c1ccc(/C=C/c2ccccc2)cc1`, the GI50 in the assay on EKVX NSCLC is 15.8 µM; in the assay with HCT-15 colon, 13.3 µM; with KM12 colon, 16.5 µM; in the assay on OVCAR-5 ovarian, 8.26 µM; with OVCAR-8 ovarian, 2.77 µM; with SF-539 CNS, 8.17 µM. For the same compound, the GI50 in the assay with SNB-19 CNS is 8.65 µM; in the assay with SNB-75 CNS it was 3.41 µM; in the assay with TK-10 renal, 3.38 µM; with UO-31 renal, 3.58 µM. The TGI with EKVX NSCLC is > 100 µM; with HCT-15 colon it was > 100 µM; in the assay with KM12 colon, > 100 µM; in the assay on OVCAR-5 ovarian, > 100 µM; in the assay on OVCAR-8 ovarian, > 96.2 µM; in the assay with SF-539 CNS, 52.9 µM. Also, the TGI in the assay with SNB-19 CNS was > 100 µM; with SNB-75 CNS, 31.9 µM; in the assay with TK-10 renal, 27.5 µM; in the assay with UO-31 renal, 26.2 µM.

Regarding `NNC(=S)N/N=C(/C(=O)Nc1cc(Cl)ccc1Cl)C1C(=O)Nc2ccccc2S1=O` (stereo not given), the TGI in the assay on EKVX NSCLC, with HCT-15 colon, in the assay on KM12 colon, in the assay on OVCAR-5 ovarian, in the assay with OVCAR-8 ovarian and with SF-539 CNS was > 100 µM each time. For the same compound, the TGI in the assay on SNB-19 CNS, with SNB-75 CNS, in the assay with TK-10 renal and in the assay with UO-31 renal was > 100 µM in each case.

For the compound `COc1ccc(N=Nc2c(-c3ccccc3)nn(C(=O)CC(=O)Nc3cccc(Cl)c3)c2-c2ccccc2)cc1`, the TGI in the assay on EKVX NSCLC, in the assay with HCT-15 colon, in the assay with KM12 colon, in the assay with OVCAR-5 ovarian, in the assay with OVCAR-8 ovarian and in the assay on SF-539 CNS was > 100 µM each time. Besides, the TGI in the assay on SNB-19 CNS, in the assay with SNB-75 CNS, with TK-10 renal and with UO-31 renal was > 100 µM throughout.

For the compound `COc1ccc2c(c1)C(=O)C(=O)c1cc(O)c(OC)c(OC)c1-2`, the GI50 was 0.457 µM with EKVX NSCLC; 1.73 µM in the assay on HCT-15 colon; 1.65 µM in the assay on OVCAR-5 ovarian; 1.62 µM with OVCAR-8 ovarian; 1.85 µM in the assay with SNB-19 CNS; 1.69 µM in the assay with SNB-75 CNS. In the assay on TK-10 renal, the GI50 is 1.69 µM. For the same compound, the TGI in the assay with EKVX NSCLC is 2.09 µM and 1.68 µM; in the assay on HCT-15 colon, 1.78 µM and 3.53 µM; in the assay with KM12 colon it was 3.28 µM; with OVCAR-5 ovarian, 2.42 µM and 3.13 µM; in the assay on OVCAR-8 ovarian, 1.6 µM and 2.98 µM; in the assay on SF-539 CNS, 3.35 µM. Moreover, the TGI was 2.38 µM and 3.28 µM with SNB-19 CNS; 2.85 µM and 3.06 µM in the assay on SNB-75 CNS; 1.77 µM and 3.05 µM in the assay with TK-10 renal; 1.7 µM in the assay with UO-31 renal.

On to `Oc1c(CN2CCCC2)cc(COCc2ccc(Br)cc2)c2cccnc12`, for which the GI50 with EKVX NSCLC was 0.723 µM; in the assay on HCT-15 colon, 0.0475 µM; with KM12 colon, 0.621 µM; in the assay on OVCAR-5 ovarian, 2.87 µM; in the assay on OVCAR-8 ovarian, 0.398 µM; in the assay with SF-539 CNS it was 1.11 µM. Further, the GI50 with SNB-19 CNS is 1.02 µM; with SNB-75 CNS it was 1.33 µM; with TK-10 renal, 0.474 µM; in the assay with UO-31 renal, 0.0569 µM. Besides, the TGI with EKVX NSCLC was 11.8 µM; in the assay with HCT-15 colon, 1.72 µM; in the assay on KM12 colon it was 11.3 µM; with OVCAR-5 ovarian, 13.6 µM; with OVCAR-8 ovarian, 1.94 µM; in the assay with SF-539 CNS it was 2.85 µM. The TGI in the assay with SNB-19 CNS worked out at 15.4 µM; in the assay on SNB-75 CNS it was 11.7 µM; with TK-10 renal it was 10.3 µM; with UO-31 renal, 0.903 µM.

Turning to `Cc1ccc(C)c(NC(=O)NCc2ccc(Cl)cc2)c1`, the TGI in the assay with EKVX NSCLC, in the assay on HCT-15 colon, in the assay on KM12 colon, in the assay with OVCAR-5 ovarian, in the assay with OVCAR-8 ovarian and with SF-539 CNS was > 100 µM throughout. The TGI in the assay on SNB-19 CNS was > 58.5 µM; in the assay with SNB-75 CNS it was 6.26 µM; in the assay on TK-10 renal it was 69.8 µM; in the assay on UO-31 renal it was > 100 µM.
